According to patent US20120177710A1, “TOPICALLY APPLICABLE COMPOSITION FOR USE AS A SKIN BLEACHING AGENT” (DSM IP ASSETS B.V., priority 2005, published 2012):

System: MelanoDerm Mel-300B tissues of the dark skin type
Test: Reduction in melanin content after treatment of MelanoDerm tissues of the dark skin type
Assay type: cell-based
Settings: absorption at 450 nm, control = 100; for Melanin content in % 8 days of treatment, measured after 16 days: 10 mM per tissue topically, then a further eight days in normal medium without test substance; for Melanin content in % after 16 days of treatment: test substance applied topically as aqueous solution, 10 mM per tissue, renewed every 48 hours
Procedure: Determination of the Reduction in Melanin Content after the Treatment of Melanoderm Tissues of the Dark Skin Type with Test Substances
Test substances: compound 1 and cystamine as standard • Cultivation of the Tissues and Application of the Test Substances
The tissues, treated according to the manufacturer's instructions, were transferred to 6-well plates containing 3 ml of medium per well. The tissues were placed on membrane inserts (Transwell-Clear from Corning). 2 ml of medium were pipetted into the lower compartment and 1 ml of medium into the upper compartment. The test substances were applied topically as an aqueous solution at a rate of 10 mM per tissue. The medium and the test substance were renewed every 48 hours by rinsing the surface of the tissues with 500 μl of warm PBS and applying fresh test substance. After 8 days the test substance was removed from two tissues per treatment type and cultivation was continued for a further eight days with normal medium not containing test substance. The other two tissues per treatment type were incubated further with test substance. The experiment lasted a total of 16 days. • Extraction of the Melanin
The membranes with the pigmented epidermis were cut out of the holders with a scalpel and transferred to screw-capped Eppendorf tubes. 200 μl of 1% SDS in 10 mM Tris, 0.05 mM EDTA pH 6.8 and 20 μl of Proteinase K were pipetted into each tube. The Eppendorf tubes were incubated overnight in a Thermomixer at 45° C. The following morning a further 20 μl of Proteinase K were pipetted into each tube and incubation was continued for 6 hours. The lysate was rendered basic by the addition of 25 μl of 500 mM NaHCO3 and incubated in the Thermomixer for 30 min at 80° C. Fats and proteins were removed from the lysate by treatment with 200 μl of methanol/chloroform (2:1). 3×100 μl of supernatant were pipetted into a 96-well plate and the absorption was measured at 450 nm. • Results

SMILES | Melanin content in % 8 days of treatment, measured after 16 days [%] | Melanin content in % after 16 days of treatment [%]
N=C(N)NCCSSCCNC(=N)N [Compound 1] | 23 | 12
NCCSSCCN [Cystamine (standard), bis(2-aminoethyl)disulfide] | 52 | 30
